The record followed here is publication PMC10933920, “Synthesis and Anti-Inflammatory Activity of Ferulic Acid-Sesquiterpene Lactone Hybrids” (Molecules, 2024).

Each structure is given as a SMILES string. In brackets after ≈: the same amount, converted by molar mass. Entries after “also recorded” stand apart in the source; their conditions may differ. Some results are limits rather than exact numbers.

For series [1], the system named is LPS-induced expression of IL-1β, IL-6 and iNOS in RAW264.7 cells. As to the kind of experiment: qRT-PCR of pro-inflammatory cytokine gene expression after LPS stimulation. The series is classed as cell-based, Mouse. The following applies: RAW264.7 cells pre-treated 2 h, LPS 1 μg/mL 6 h, RT-PCR, 2 μM. The text has this:
Inflammatory factors, including TNF-α, IL-1β, and IL-6, are involved in and accelerate inflammatory responses during inflammatory progression. In addition, iNOS (Nitric oxide synthase)-derived monocytes contribute to macrophage recruitment in the lung, and pulmonary-derived iNOS is detrimental during acute lung injury. Moreover, observations indicate that inhibiting iNOS can reduce inflammation in the early stages of the bleomycin model of acute lung injury. Therefore, the effective suppression of inflammation is considered an effective marker for the treatment of inflammation. To establish the efficacy of those compounds suppressing inflammatory procession, we tested pro-inflammatory cytokines that are released from the RAW264.7 cells upon LPS stimulation.
Total RNA was isolated using TRIzol reagent (Takara, Ōtsu-shi, Japan) and then transcribed into cDNA using a transcriptor cDNA synthesis kit (TransGen Biotech, Beijing, China) according to the manufacturer’s instructions. Quantitative real-time PCR was performed with TransStart® Green qPCR SuperMix (TransGen Biotech, China). The conditions for the real-time PCR reaction were as follows: 94 °C, 30 s; 94 °C, 5 s; 60 °C, 30 s; 40 cycles. The primers for this research are listed in Supplementary Material Table S1.
Figure 2 Anti-inflammation of 1–6 in RAW264.7 Cells. Expression of proinflammatory cytokines in RAW264.7 cells use RT-PCR. Cells (1 × 10^6 cells/well) were seeded into 6-well plates and then pro-treated with 1–6 for 2 h. Cells were then challenged with LPS (1 μg/mL) or medium alone for 6 h and Total RNA was extracted from cells with Trizol reagent. TNF-α: tumor necrosis factor-α; IL-1β:Interleukin-1β; L-6: Interleukin-6. Data were analyzed by One-Way ANOVA. *: p < 0.05; **: p < 0.01. ns: no significance.

Series [2] can be described thus: Aqueous solubility measurement. The series is classed as physicochemical. The following applies: for solubility: thermodynamic from solid, deionized water, pH = 7.0, at least in duplicate, read-out: Aqueous Solubility IC50. The method, then: PTL, MCL and compounds 1–6 (0.1, 1, 10 mg) were dissolved in deionized water (pH = 7.0) until the solution was clear. The assays were measured at least in duplicate.

The subject of another series is RAW264.7 cells. As to the kind of experiment: CCK-8 cell viability (cytotoxicity) assay. The note with it: RAW264.7 cells, CCK-8, 24 h incubation, means of three independent experiments. It is filed as cell-based, Mouse. Here is the method:
CCK-8 Cell Proliferation was used to confirm the non-cytotoxic dose of those derivatives in RAW264.7 cells. However, IC50 values of those compounds show visible difference in vitro (Table 1). Considering the safety of compound 6 in RAW264.7 cells, a follow-up experiment was carried out at the concentration of 2 μM.
The toxicity of those compounds was determined by the CCK-8 assay. RAW264.7 cells were seeded in a 96-well plate at a density of 2 × 10^5/mL and a volume of 100 μL/well. After incubation for 12 h at 37 °C, the cells were then incubated with compounds at concentrations of 1.25, 2.5, 5, 10, 20, 40 and 80 μM for 24 h, followed by the addition of 10 μL CCK-8 solution to each well, and the plates were further incubated for 2 h at 37 °C. The absorbance at a wavelength of 450 nm was measured using a microplate reader (Bio-Rad Laboratories, Inc., Hercules, CA, USA).

On to `C=C1C(=O)O[C@@H]2C3C(=C(C)CC[C@@H]12)CC[C@@]3(C)OC(=O)/C=C/c1ccc(O)c(OC)c1` (stereo partly drawn) [Compound 1, (3aS,9R,9bS)-6,9-dimethyl-3-methylene-2-oxo-2,3,3a,4,5,7,8,9,9a,9b-decahydroazuleno[4,5-b]furan-9-yl (E)-3-(4-hydroxy-3-methoxyphenyl)acrylate], for which the “gene expression of pro-inflammatory cytokines (IL-1β, IL-6, iNOS)” value (“gene expression” below) in series [1] is “reduce the gene expression levels of IL-1β, IL-6 and iNOS significantly; also recorded: comparable activities”. In addition, the solubility in series [2] is < 10 µg/mL. For the same compound, in the series on RAW264.7 cells (Mus musculus, RAW264.7, 24 h), it took 6.14 ± 0.09 µM to reach half-maximal inhibition (IC50).

For `COc1cc(/C=C/C(=O)O[C@]2(C)CCC3=C(C)CC[C@@H]4[C@H](OC(=O)[C@H]4CN(C)C)[C@H]32)ccc1O` [Compound 2, (3R,3aS,9R,9aS,9bS)-3-((dimethylamino)methyl)-6,9-dimethyl-2-oxo-2,3,3a,4,5,7,8,9,9a,9b-decahydroazuleno[4,5-b]furan-9-yl (E)-3-(4-hydroxy-3-methoxyphenyl)acrylate], the “gene expression” value in series [1] was “decreased activity compared with compound 1”. Also, in series [2], the solubility was < 10 µg/mL. In the series on RAW264.7 cells, it took 19.6 ± 0.21 µM to reach half-maximal inhibition (IC50).

Turning to `C=C1C(=O)OC2C1CCC(COC(=O)C=Cc1ccc(O)c(OC)c1)=CCCC1(C)OC21` [Compound 3, ((1aR,7aS,10aS,10bS,E)-1a-methyl-8-methylene-9-oxo-1a,2,3,6,7,7a,8,9,10a,10b-decahydrooxireno[2′,3′:9,10]cyclodeca[1,2-b]furan-5-yl)methyl (E)-3-(4-hydroxy-3-methoxyphenyl)acrylate], the melting point was 96 to 98 °C. Moreover, the “gene expression” value in series [1] is “reduce the gene expression levels of IL-1β, IL-6 and iNOS significantly; also recorded: comparable activities”. For the same compound, the solubility in series [2] is < 10 µg/mL. In the series on RAW264.7 cells (Mus musculus, RAW264.7, 24 h), this compound gave an IC50 of 3.04 ± 0.08 µM.

`COc1cc(C=CC(=O)NCC2=CCCC3(C)OC3C3OC(=O)C(CN(C)C)C3CC2)ccc1O` [Compound 4, (E)-N-(((1aR,7aS,8R,10aS,10bS,E)-8-((dimethylamino)methyl)-1a-methyl-9-oxo-1a,2,3,6,7,7a,8,9,10a,10b-decahydrooxireno[2′,3′:9,10]cyclodeca[1,2-b]furan-5-yl)methyl)-3-(4-hydroxy-3-methoxyphenyl)acrylamide] registered a melting point of 132 to 134 °C. For the same compound, the “gene expression” value in series [1] was “neither the amide derivative of FA-PTL hybrid 4 or 5 (the prodrug of 2 containing citric acid) showed anti-inflammation activities”. Moreover, the solubility in series [2] was < 10 µg/mL. The compound further displayed an IC50 in the series with RAW264.7 cells (Mus musculus, RAW264.7, 24 h) of 38.4 ± 1.14 µM.

With `COc1cc(/C=C/C(=O)O[C@]2(C)CCC3=C(C)CC[C@@H]4[C@H](OC(=O)[C@H]4CN(C)C)[C@H]32)ccc1O.O=C(O)CC(O)(CC(=O)O)C(=O)O` [Compound 5, (3R,3aS,9R,9aS,9bS)-3-((dimethylamino)methyl)-6,9-dimethyl-2-oxo-2,3,3a,4,5,7,8,9,9a,9b-decahydroazuleno[4,5-b]furan-9-yl (E)-3-(4-hydroxy-3-methoxyphenyl)acrylate 2-hydroxypropane-1,2,3-tricarboxylate], in series [1], the “gene expression” value is “neither the amide derivative of FA-PTL hybrid 4 or 5 (the prodrug of 2 containing citric acid) showed anti-inflammation activities”. The “water solubility (in words)” value in series [2] (pH 7.0) was “significantly improved water solubility”. Also, the solubility in series [2] was found to be 2500 µg/mL. In the series with RAW264.7 cells (Mus musculus, RAW264.7, 24 h), this compound registered an IC50 of 28.8 ± 0.21 µM.

As to `COc1cc(/C=C/C(=O)O)ccc1O` [FA, Ferulic acid], the IC50 with RAW264.7 cells (Mus musculus, RAW264.7, 24 h) was > 100 µM.

For the compound `C=C1C(=O)O[C@H]2[C@H]1CCC(C)=C1CC[C@@](C)(O)[C@@H]12` [MCL, micheliolide, reference compound], the solubility in series [2] turned out to be 50 µg/mL (≈ 201 µM). This compound returned a 50% inhibitory concentration (IC50) in the series with RAW264.7 cells (Mus musculus, RAW264.7, 24 h) of 9.03 ± 0.16 µM.

As for `C=C1C(=O)O[C@H]2[C@H]1CC/C(C)=C/CC[C@@]1(C)O[C@@H]21` [PTL, Parthenolide, reference compound], the solubility in series [2] came out at 50 µg/mL (≈ 201 µM). Moreover, the concentration for half-maximal inhibition (IC50) in the series on RAW264.7 cells (Mus musculus, RAW264.7, 24 h) stood at 5.35 ± 0.06 µM.
